Biological target: T1, Gonadotropin-releasing hormone receptor (Homo sapiens, UniProt P30968)
T1 sequence (P30968 whole entry): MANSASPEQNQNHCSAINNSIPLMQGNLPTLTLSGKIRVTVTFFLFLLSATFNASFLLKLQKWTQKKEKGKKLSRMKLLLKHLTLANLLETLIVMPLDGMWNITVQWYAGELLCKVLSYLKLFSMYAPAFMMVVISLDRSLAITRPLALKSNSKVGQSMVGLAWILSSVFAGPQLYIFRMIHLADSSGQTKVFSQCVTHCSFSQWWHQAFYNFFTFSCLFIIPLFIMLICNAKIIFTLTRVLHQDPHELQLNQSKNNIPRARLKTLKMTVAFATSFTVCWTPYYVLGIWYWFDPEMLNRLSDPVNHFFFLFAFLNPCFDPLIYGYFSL
Assay: Displacement of [125I]D-Trp6-LHRH from human GnRH receptor expressed in CHO-K1 cell membranes incubated for 1 hr by competitive binding assay

In order of falling IC50:
1. Cc1c(N2CCN(Cc3nc4ccccc4s3)CC2)c(=O)n(C[C@H](N)c2ccccc2)c(=O)n1Cc1c(F)cccc1C(F)(F)F  48 nM
2. Cc1c(N2CCN(Cc3cscn3)CC2)c(=O)n(C[C@H](N)c2ccccc2)c(=O)n1Cc1c(F)cccc1C(F)(F)F  35.6 nM
3. COC(=O)c1ccccc1CN1CCN(c2c(C)n(Cc3c(F)cccc3C(F)(F)F)c(=O)n(C[C@H](N)c3ccccc3)c2=O)CC1  24.3 nM
4. Cc1c(N2CCN(Cc3cnccn3)CC2)c(=O)n(C[C@H](N)c2ccccc2)c(=O)n1Cc1c(F)cccc1C(F)(F)F  20 nM
5. Cc1ccc(CN2CCN(c3c(C)n(Cc4c(F)cccc4C(F)(F)F)c(=O)n(C[C@H](N)c4ccccc4)c3=O)CC2)cn1  14.2 nM
6. Cc1cncc(CN2CCN(c3c(C)n(Cc4c(F)cccc4C(F)(F)F)c(=O)n(C[C@H](N)c4ccccc4)c3=O)CC2)c1  7.18 nM
7. Cc1c(N2CCN(Cc3cocn3)CC2)c(=O)n(C[C@H](N)c2ccccc2)c(=O)n1Cc1c(F)cccc1C(F)(F)F  7.01 nM
8. Cc1c(N2CCN(Cc3ccoc3)CC2)c(=O)n(C[C@H](N)c2ccccc2)c(=O)n1Cc1c(F)cccc1C(F)(F)F  6.59 nM
9. Cc1c(N2CCN(Cc3ccco3)CC2)c(=O)n(C[C@H](N)c2ccccc2)c(=O)n1Cc1c(F)cccc1C(F)(F)F  2.76 nM
10. Cc1c(N2CCN(Cc3cccnc3Cl)CC2)c(=O)n(C[C@H](N)c2ccccc2)c(=O)n1Cc1c(F)cccc1C(F)(F)F  2.57 nM
11. Cc1c(N2CCN(Cc3cccnc3)CC2)c(=O)n(C[C@H](N)c2ccccc2)c(=O)n1Cc1c(F)cccc1C(F)(F)F  2 nM
12. Cc1c(N2CCN(Cc3cccs3)CC2)c(=O)n(C[C@H](N)c2ccccc2)c(=O)n1Cc1c(F)cccc1C(F)(F)F  1.27 nM
13. Cc1c(N2CCN(Cc3cccnc3F)CC2)c(=O)n(C[C@H](N)c2ccccc2)c(=O)n1Cc1c(F)cccc1C(F)(F)F  1.07 nM
14. Cc1c(N2CCN(Cc3cccc(OC(F)(F)F)c3)CC2)c(=O)n(C[C@H](N)c2ccccc2)c(=O)n1Cc1c(F)cccc1C(F)(F)F  1 nM
15. COC(=O)c1cccc(CN2CCN(c3c(C)n(Cc4c(F)cccc4C(F)(F)F)c(=O)n(C[C@H](N)c4ccccc4)c3=O)CC2)c1  0.39 nM
16. Cc1c(N2CCN(Cc3ccccc3C#N)CC2)c(=O)n(C[C@H](N)c2ccccc2)c(=O)n1Cc1c(F)cccc1C(F)(F)F  0.32 nM
17. COC(=O)c1ccc(CN2CCN(c3c(C)n(Cc4c(F)cccc4C(F)(F)F)c(=O)n(C[C@H](N)c4ccccc4)c3=O)CC2)o1  0.31 nM

Biological target: T1, Gonadotropin-releasing hormone receptor
Assay: Antagonist activity against human GnRH receptor expressed in HEK293 cells co-transfected with pGL4-NFAT promoter AP1-luc assessed as inhibition of 20 nM GnRH-induced NFAT activation pre-incubated for 1 hr before GnRH stimulation and measured after 6 hrs by luciferase reporter gene assay
Type: cell-based

First: COC(=O)c1ccccc1CN1CCN(c2c(C)n(Cc3c(F)cccc3C(F)(F)F)c(=O)n(C[C@H](N)c3ccccc3)c2=O)CC1
Second: COC(=O)c1cccc(CN2CCN(c3c(C)n(Cc4c(F)cccc4C(F)(F)F)c(=O)n(C[C@H](N)c4ccccc4)c3=O)CC2)c1
The IC50 of the first is higher: > 10000 nM for the first, 23.3 nM for the second.

`Cc1cncc(CN2CCN(c3c(C)n(Cc4c(F)cccc4C(F)(F)F)c(=O)n(C[C@H](N)c4ccccc4)c3=O)CC2)c1` and `Cc1ccc(CN2CCN(c3c(C)n(Cc4c(F)cccc4C(F)(F)F)c(=O)n(C[C@H](N)c4ccccc4)c3=O)CC2)cn1` are within 1.5-fold of each other in IC50: 1180 nM for the first, 1690 nM for the second.

First: Cc1c(N2CCN(Cc3ccccc3C#N)CC2)c(=O)n(C[C@H](N)c2ccccc2)c(=O)n1Cc1c(F)cccc1C(F)(F)F
Second: Cc1c(N2CCN(Cc3cccc(C#N)c3F)CC2)c(=O)n(C[C@H](N)c2ccccc2)c(=O)n1Cc1c(F)cccc1C(F)(F)F
The IC50 of the first is 5.8-fold higher: 351 nM for the first, 61 nM for the second. The second is the more potent here.

Compared with `Cc1c(N2CCN(Cc3cccnc3Cl)CC2)c(=O)n(C[C@H](N)c2ccccc2)c(=O)n1Cc1c(F)cccc1C(F)(F)F`, `Cc1c(N2CCN(Cc3cccnc3F)CC2)c(=O)n(C[C@H](N)c2ccccc2)c(=O)n1Cc1c(F)cccc1C(F)(F)F` is 2.7-fold lower in IC50: 526 nM for the first, 193 nM for the second. The second is the more potent here.

`Cc1c(N2CCN(Cc3ccoc3)CC2)c(=O)n(C[C@H](N)c2ccccc2)c(=O)n1Cc1c(F)cccc1C(F)(F)F` and `Cc1c(N2CCN(Cc3ccco3)CC2)c(=O)n(C[C@H](N)c2ccccc2)c(=O)n1Cc1c(F)cccc1C(F)(F)F` cannot be ordered by IC50: > 1000 nM for the first, > 1000 nM for the second.

`Cc1c(N2CCN(Cc3cnccn3)CC2)c(=O)n(C[C@H](N)c2ccccc2)c(=O)n1Cc1c(F)cccc1C(F)(F)F` and `Cc1c(N2CCN(Cc3ccncn3)CC2)c(=O)n(C[C@H](N)c2ccccc2)c(=O)n1Cc1c(F)cccc1C(F)(F)F` cannot be ordered by IC50: 2050 nM for the first, > 300 nM for the second.

`Cc1c(N2CCN(Cc3cscn3)CC2)c(=O)n(C[C@H](N)c2ccccc2)c(=O)n1Cc1c(F)cccc1C(F)(F)F` and `Cc1c(N2CCN(Cc3cocn3)CC2)c(=O)n(C[C@H](N)c2ccccc2)c(=O)n1Cc1c(F)cccc1C(F)(F)F` cannot be ordered by IC50: 2130 nM for the first, > 1000 nM for the second.

`Cc1ccc(CN2CCN(c3c(C)n(Cc4c(F)cccc4C(F)(F)F)c(=O)n(C[C@H](N)c4ccccc4)c3=O)CC2)o1` and `Cc1c(N2CCN(Cc3ccc(C(N)=O)o3)CC2)c(=O)n(C[C@H](N)c2ccccc2)c(=O)n1Cc1c(F)cccc1C(F)(F)F` cannot be ordered by IC50: > 300 nM for the first, > 300 nM for the second.

Going from `Cc1c(N2CCN(Cc3ccc(C(F)(F)F)nc3)CC2)c(=O)n(C[C@H](N)c2ccccc2)c(=O)n1Cc1c(F)cccc1C(F)(F)F` to `Cc1c(N2CCN(Cc3ccc(C(F)(F)F)s3)CC2)c(=O)n(C[C@H](N)c2ccccc2)c(=O)n1Cc1c(F)cccc1C(F)(F)F`, the IC50 falls from > 300 nM to 62 nM.

Going from `Cc1c(N2CCN(Cc3cccc(OC(F)(F)F)c3)CC2)c(=O)n(C[C@H](N)c2ccccc2)c(=O)n1Cc1c(F)cccc1C(F)(F)F` to `Cc1c(N2CCN(Cc3cccc([S+](C)[O-])c3)CC2)c(=O)n(C[C@H](N)c2ccccc2)c(=O)n1Cc1c(F)cccc1C(F)(F)F` (some centres undefined), the IC50 falls from 250 nM to 51.2 nM (4.9-fold).

Compared with `CCNC(=O)c1cccc(CN2CCN(c3c(C)n(Cc4c(F)cccc4C(F)(F)F)c(=O)n(C[C@H](N)c4ccccc4)c3=O)CC2)c1`, `CNC(=O)c1cccc(CN2CCN(c3c(C)n(Cc4c(F)cccc4C(F)(F)F)c(=O)n(C[C@H](N)c4ccccc4)c3=O)CC2)c1` is lower in IC50: > 300 nM for the first, 170 nM for the second. The second is the more potent here.

`Cc1c(N2CCN(Cc3nc4ccccc4s3)CC2)c(=O)n(C[C@H](N)c2ccccc2)c(=O)n1Cc1c(F)cccc1C(F)(F)F` and `Cc1c(N2CCN(Cc3cccs3)CC2)c(=O)n(C[C@H](N)c2ccccc2)c(=O)n1Cc1c(F)cccc1C(F)(F)F` cannot be ordered by IC50: 4900 nM for the first, > 1000 nM for the second.

Compared with `Cc1c(N2CCN(Cc3cccnc3)CC2)c(=O)n(C[C@H](N)c2ccccc2)c(=O)n1Cc1c(F)cccc1C(F)(F)F`, `Cc1c(N2CCN(Cc3cccc(=O)o3)CC2)c(=O)n(C[C@H](N)c2ccccc2)c(=O)n1Cc1c(F)cccc1C(F)(F)F` is higher in IC50: 290 nM for the first, > 300 nM for the second.

With `COC(=O)c1ccc(CN2CCN(c3c(C)n(Cc4c(F)cccc4C(F)(F)F)c(=O)n(C[C@H](N)c4ccccc4)c3=O)CC2)o1` the IC50 was 64 nM.

Reference: ChEMBL document CHEMBL4428102, “Discovery of an Orally Bioavailable Gonadotropin-Releasing Hormone Receptor Antagonist” (J Med Chem, 2016)
